Values joined by “and” are separate entries in the source; they are usually repeats but may differ in a detail not shown here. Equal entries are not always repeated.

What is called IC50 is the concentration that gives 50% inhibition. A low value points to higher potency. By inhibition is commonly meant the drop in the measured response relative to a control, in per cent. A high value points to a response far below the control. A word on the ED50: it is the dose at which the effect has come halfway, by size or by number of responders.

One assay concerns MAPK14 (Lewis rat). Briefly: SCW-induced Arthritis (Lewis Rat).
Assay [1] has as its target EGFR (UniProt P00533).
The target of assay [2] is MAPK14 (UniProt Q16539). Briefly: p38-alpha2 Inhibition (E. coli). As to conditions: concentration not given here.
MAPK14, sequence (Q16539 whole entry, looked up): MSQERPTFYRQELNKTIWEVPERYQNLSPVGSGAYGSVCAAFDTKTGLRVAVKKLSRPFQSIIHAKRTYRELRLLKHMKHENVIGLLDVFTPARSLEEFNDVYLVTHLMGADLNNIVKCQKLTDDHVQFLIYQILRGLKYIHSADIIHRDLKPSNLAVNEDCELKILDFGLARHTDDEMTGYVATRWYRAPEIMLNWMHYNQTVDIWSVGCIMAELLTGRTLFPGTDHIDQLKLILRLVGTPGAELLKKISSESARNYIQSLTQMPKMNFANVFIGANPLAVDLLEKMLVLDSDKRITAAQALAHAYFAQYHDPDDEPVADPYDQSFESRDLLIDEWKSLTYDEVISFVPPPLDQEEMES
In assay [3] the target is EGFR (human) (UniProt P00533). As to conditions: mda-mb-468.
EGFR (human), sequence (P00533 whole entry, looked up): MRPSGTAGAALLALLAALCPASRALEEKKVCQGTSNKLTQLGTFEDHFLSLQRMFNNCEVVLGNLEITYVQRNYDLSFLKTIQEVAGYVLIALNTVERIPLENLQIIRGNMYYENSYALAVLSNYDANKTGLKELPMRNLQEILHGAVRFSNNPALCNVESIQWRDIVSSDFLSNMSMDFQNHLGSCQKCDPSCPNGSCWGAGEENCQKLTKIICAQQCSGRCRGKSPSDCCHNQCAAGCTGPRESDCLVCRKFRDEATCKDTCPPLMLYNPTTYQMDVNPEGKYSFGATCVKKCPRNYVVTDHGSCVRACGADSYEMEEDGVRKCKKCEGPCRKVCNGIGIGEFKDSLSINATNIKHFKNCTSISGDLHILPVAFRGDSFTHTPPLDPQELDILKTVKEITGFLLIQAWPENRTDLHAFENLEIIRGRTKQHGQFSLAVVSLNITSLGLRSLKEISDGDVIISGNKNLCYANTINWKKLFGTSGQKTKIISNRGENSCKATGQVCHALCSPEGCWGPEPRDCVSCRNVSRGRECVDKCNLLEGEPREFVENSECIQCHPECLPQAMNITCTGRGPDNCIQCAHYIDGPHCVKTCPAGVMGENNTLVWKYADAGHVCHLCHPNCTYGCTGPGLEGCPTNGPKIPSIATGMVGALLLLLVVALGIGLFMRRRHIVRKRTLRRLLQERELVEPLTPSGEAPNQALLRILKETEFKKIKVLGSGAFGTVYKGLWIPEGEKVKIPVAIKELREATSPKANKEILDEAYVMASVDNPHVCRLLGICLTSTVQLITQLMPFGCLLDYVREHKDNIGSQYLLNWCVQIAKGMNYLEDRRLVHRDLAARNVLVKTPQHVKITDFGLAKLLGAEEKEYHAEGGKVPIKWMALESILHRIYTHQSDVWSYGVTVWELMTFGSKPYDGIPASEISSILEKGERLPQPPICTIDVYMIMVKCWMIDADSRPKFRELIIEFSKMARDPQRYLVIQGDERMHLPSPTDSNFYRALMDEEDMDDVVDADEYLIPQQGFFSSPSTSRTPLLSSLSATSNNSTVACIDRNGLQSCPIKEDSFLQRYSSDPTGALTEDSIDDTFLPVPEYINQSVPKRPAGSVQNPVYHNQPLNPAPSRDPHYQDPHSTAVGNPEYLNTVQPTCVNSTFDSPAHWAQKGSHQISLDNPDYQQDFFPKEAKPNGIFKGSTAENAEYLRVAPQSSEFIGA
For assay [4], the target named is EGFR (human) (UniProt P00533). The note with it: hs-27.
Assay [5] addresses EGFR (human) (UniProt P00533). The note with it: A431.
Assay [6] concerns the target EGFR (UniProt P00533). This is another data set of the same source.
Assay [7] has as its target MAPK14 (human) (UniProt Q16539). Briefly: IL-6 Inhibition. As to conditions: hiv-1.
Assay [8] has as its system MAPK14 (murine). Briefly: TNF-alpha Inhibition (In vivo Studies).
The target of assay [9] is MAPK14 (human) (UniProt Q16539). Briefly: TNF-alpha Inhibition (Human Whole Blood). As to conditions: blood cells.
MAPK14 (human), sequence (Q16539 whole entry, looked up): as the sequence (Q16539 whole entry, looked up) above
Assay [10] shares this target. Briefly: TNF-alpha Inhibition (PBMC).
For assay [11], the target named is EGFR (murine) (UniProt P00533). As to conditions: balb/mk cells.
EGFR (murine), sequence (P00533 whole entry, looked up): as the sequence (P00533 whole entry, looked up) above
In assay [12] the target is EGFR (UniProt P00533). This is another data set of the same source.
EGFR, sequence (P00533 whole entry, looked up): as above
The target of assay [13] is EGFR (UniProt P00533). This is another data set of the same source.
The target in assay [14] is EGFR (human) (UniProt P00533). As to conditions: a431.
For assay [15], the target named is MAPK14 (human) (UniProt Q16539). Briefly: MIP-1 Beta Assay (T cells).
For assay [16] the target is unchanged. Briefly: MIP-1 alpha Assay (T cells).
Assay [17] addresses EGFR (human) (UniProt P00533). The note with it: A431. The source holds these as a separate data set.
In assay [18] the target is EGFR (human) (UniProt P00533). The note with it: a431. The source holds these as a separate data set.
Assay [19] addresses EGFR (UniProt P00533). This is another data set of the same source.
The target in assay [20] is MAPK14 (UniProt Q16539). Briefly: Inhibition of MAPK Activity.
For assay [21], the target named is EGFR (UniProt P00533). The source holds these as a separate data set.
In assay [22] the test system is MAPK14 (murine). Briefly: p38 Kinase Inhibition (MAPKAPK2 / L1210/VCR Cells). As to conditions: dose or concentration not given here.
Assay [23] deals with MAPK14 (murine). Briefly: p38 Kinase Inhibition (ATF-2 / L1210/VCR Cells). As to conditions: dose or concentration not given here.
Another assay deals with PIK3CA (UniProt P42336).
PIK3CA, sequence (P42336 whole entry, looked up): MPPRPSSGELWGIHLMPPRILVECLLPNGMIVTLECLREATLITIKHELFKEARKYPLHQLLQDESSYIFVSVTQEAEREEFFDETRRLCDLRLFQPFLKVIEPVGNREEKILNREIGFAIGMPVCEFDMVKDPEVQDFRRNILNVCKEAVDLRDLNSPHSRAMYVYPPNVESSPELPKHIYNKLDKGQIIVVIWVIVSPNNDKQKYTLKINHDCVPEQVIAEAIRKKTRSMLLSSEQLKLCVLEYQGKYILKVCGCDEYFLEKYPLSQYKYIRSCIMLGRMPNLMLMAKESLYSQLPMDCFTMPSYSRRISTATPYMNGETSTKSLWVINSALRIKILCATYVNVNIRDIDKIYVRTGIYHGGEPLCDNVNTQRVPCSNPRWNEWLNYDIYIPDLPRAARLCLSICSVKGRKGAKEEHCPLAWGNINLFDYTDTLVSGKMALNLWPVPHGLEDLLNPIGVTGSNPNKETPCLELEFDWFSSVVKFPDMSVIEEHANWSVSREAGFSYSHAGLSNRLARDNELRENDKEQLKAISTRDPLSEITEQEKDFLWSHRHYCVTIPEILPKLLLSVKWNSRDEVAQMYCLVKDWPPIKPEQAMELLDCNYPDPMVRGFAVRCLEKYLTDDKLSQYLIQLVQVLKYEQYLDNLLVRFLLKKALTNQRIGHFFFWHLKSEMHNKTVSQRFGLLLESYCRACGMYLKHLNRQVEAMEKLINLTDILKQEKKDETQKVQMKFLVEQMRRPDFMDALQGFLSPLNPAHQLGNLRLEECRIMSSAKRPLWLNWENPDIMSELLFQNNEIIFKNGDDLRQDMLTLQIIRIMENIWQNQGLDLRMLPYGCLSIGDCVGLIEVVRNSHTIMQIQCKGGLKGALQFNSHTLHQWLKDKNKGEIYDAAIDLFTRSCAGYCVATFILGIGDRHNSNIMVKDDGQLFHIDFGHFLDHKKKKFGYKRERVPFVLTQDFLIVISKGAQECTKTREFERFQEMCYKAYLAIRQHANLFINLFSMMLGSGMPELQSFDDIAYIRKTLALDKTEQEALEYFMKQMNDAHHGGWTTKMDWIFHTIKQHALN
For assay [24], the system named is MAPK14 (sprague-dawley rat). Briefly: Effect of the p38 Inhibitor on TNF-alpha Level following Air Inflammatory Response. The note with it: dose or concentration not given here.
The subject of assay [25] is MAPK14 (sprague-dawley rat). Briefly: Effect of the p38 Inhibitor on IL-1beta Level following Air Inflammatory Response. The note with it: dose or concentration not given here.
In assay [26] the target is EGFR (UniProt P00533). This is another data set of the same source.
In assay [27] the target is EGFR (UniProt P00533). The source holds these as a separate data set.
Assay [28] deals with MAPK14 (UniProt Q16539).
For assay [29], the target named is MAPK14 (UniProt Q16539). The source holds these as a separate data set.
Assay [30] addresses EGFR (human) (UniProt P00533). The note with it: a431. This is another data set of the same source.
The target of assay [31] is EGFR (murine) (UniProt P00533). As to conditions: nih3t3.

In the case of `CC1(C(=O)N2CCOCC2)COC(c2nc(-c3ccc(F)cc3)c(-c3ccnc(NC4CC4)n3)[nH]2)OC1` (stereo not drawn), in the assay with MAPK14 (Lewis rat), the AUC was 2 and 2.1 and 3.3.

On EGFR [1], `N#CC(=Cc1cccnc1)c1cc(Cl)cc(Cl)c1` gave a half-maximal inhibitory concentration (IC50) of 100 nM. This counts as sub-micromolar.

At MAPK14 [2], `COC(=O)c1sc(C(C)(C)C)cc1NC(=O)Nc1ccc(C(N)=O)cc1` registered an inhibition of 23%.

At EGFR (human) [3], `C=C1CC(C)OC(=O)c2c(O)cc(OC)cc2C(=C)C(=C)CC(O)C(O)C(=O)C1=C` (stereo not drawn) returned a half-inhibitory concentration (IC50) greater than 30000 nM.

Turning to `C=CC(=O)Nc1ccc2c(Nc3cccc(Br)c3)ncnc2c1`, the IC50 at EGFR (human) [4] was 6.4 nM.

With `Cn1c(=O)c(-c2c(Cl)cccc2Cl)cc2cnc(N)cc21`, on EGFR (human) [5], the IC50 was less than 50000 nM.

Consider `COc1cc(O)c2c(=O)c(-c3cccc(Cl)c3)cn(CC(N)=O)c2c1`, for which the IC50 at EGFR [6] worked out at 23 nM. That is a double-digit nanomolar value.

The compound `Cn1c2ccccc2c2c3c(c4c5ccccc5n(CCC#N)c4c21)CNC3=O` returned an IC50 at MAPK14 (human) [7] of less than 25 nM.

`Cc1nccc(-c2c(-c3ccc(F)cc3)ncn2C2CCCCC2)n1`: the ED50 in the assay on MAPK14 (murine) [8] was determined as 7.5 mg/kg.

Consider `C[C@H](Nc1nccc(-c2cc(N3CCOCC3)nnc2-c2cccc(C(F)(F)F)c2)n1)c1ccccc1`, for which the values for the IC50 on MAPK14 (human) [9] and against MAPK14 (human) [10] were 1200 nM and 292 nM, respectively.

Regarding `Cc1ccc(NC(=O)c2ccc(CN3CCN(C)CC3)cc2)cc1Nc1nccc(-c2cccnc2)n1`, the IC50 with EGFR (murine) [11] is 12700 nM.

The compound `C/C=C/C(=O)Nc1ccc2c(Nc3cccc(Br)c3)ncnc2c1` registered an IC50 on EGFR [12] of 0.68 nM.

`O=[N+]([O-])c1cccc(Cl)c1-c1nc(-c2ccncc2)c(-c2ccc(Cl)cc2)[nH]1` returned an IC50 at EGFR [13] of 290 nM.

The compound `COc1cc2ncnc(Nc3ccc(F)c(Cl)c3)c2cc1OCCC1OCCO1` yielded an ED50 with EGFR (human) [14] of 50 mg/kg.

With `CC(=NNC(=N)N)c1cc(NC(=O)CCCCCCCCC(=O)Nc2cc(C(C)=NNC(=N)N)cc(C(C)=NNC(=N)N)c2)cc(C(C)=NNC(=N)N)c1`, the expression on MAPK14 (human) [15] is 3800 pg/mL and 10400 pg/mL; on MAPK14 (human) [16], 10500 pg/mL and 5700 pg/mL.

Take `C=CC(=O)Nc1ccc2ncnc(N(C)C)c2c1`: the IC50 was 910 nM on EGFR (human) [17] and greater than 10000 nM against EGFR (human) [18].

`O=C(O)CCC1C(=S)Nc2ccccc21` (stereo not drawn) had an IC50 against EGFR [19] greater than 1620 nM.

On to `COC(=O)[C@@]1(Cc2ccc(O)c(CC=C(C)C)c2)OC(=O)C(O)=C1c1ccc(O)cc1`, for which the IC50 at MAPK14 [20] is 94000 nM; on EGFR [21], greater than 590000 nM.

Consider `CC[C@]1(O)C[C@@H]2CN(CCc3c([nH]c4ccccc34)[C@@](C(=O)OC)(c3cc4c(cc3OC)N(C=O)[C@H]3[C@@](O)(C(=O)OC)[C@H](OC(C)=O)[C@]5(CC)C=CCN6CC[C@]43C65)C2)C1` (stereo partly drawn), for which the values for the activity with MAPK14 (murine) [22] and in the assay with MAPK14 (murine) [23] were 120% and 53.3%, respectively.

At PIK3CA, `O=c1c(O)c(-c2ccc(O)c(O)c2)oc2cc(O)cc(O)c12` registered an IC50 of 3800 nM.

With `C[C@@H]1C[C@H]2[C@@H]3CCC4=CC(=O)C=C[C@]4(C)[C@@]3(F)[C@@H](O)C[C@]2(C)[C@@]1(O)C(=O)CO`, the figures for the inhibition in [24] and in assay [25] were 80% and 40%, respectively.

`COc1cc(Nc2ccnc(Nc3ccc(COc4ccccc4)cc3)n2)cc(OC)c1OC`: the IC50 at EGFR [26] is no less than 10000 nM.

`CN(C)C[C@H]1CCn2c(c(C3=C(c4cn(C)c5ccccc45)C(=O)NC3=O)c3ccccc32)C1` displayed a half-maximal inhibitory concentration (IC50) against EGFR [27] greater than 100000 nM.

In the case of `O=C(CN1CCNCC1)Nc1cccc(Oc2nccc(-c3c(-c4ccc(F)cc4)ncn3C3CCNCC3)n2)c1`, the IC50 against MAPK14 [28] and on MAPK14 [29] was less than 50000 nM in each case.

Compound `COc1cc2cc3ncc(C#N)c(Nc4ccc(F)c(Cl)c4)c3cc2cc1OC` showed an IC50 against EGFR (human) [30] of 680 nM.

In turn, `CC(C)(C)c1cc(/C=C(\C#N)S(=O)(=O)Cc2cccc(C(F)(F)F)c2)cc(C(C)(C)C)c1O` returned an IC50 with EGFR (murine) [31] greater than 100000 nM.

The record behind these values is the Kinase Knowledgebase extract (Sharma et al. 2016).
